Legend:
[1] = tested on: MBP-specific T lymphocyte cell lines migrating across rat brain endothelial cell monolayer; assay: Inhibition of T-lymphocyte migration across rat brain endothelial cell layer (Transwell, 51Cr-labeled cells); type: cell-based, Lewis rats; conditions: 6 hours
Experimental: Preparation of Brain Endothelial Cells (ECs)
Vascular ECs were isolated from rat brain capillaries of 6 to 8 week old Lewis rats according to the method of Risau, W et al., 1990, J. Cell Biol. 110:1757-1766 (which is incorporated herein by reference). Colonies of ECs were purified from astroglial cells and pericytes using anti-Thy1.1-antibody and complement-mediated lysis to remove unwanted Thy1.1+ cells.
The EC colonies were grown, using conventional methods, in Dulbecco's Modified Eagle's Medium (DMEM)-high glucose, supplemented, with 20% fetal calf serum (FCS), glutamine, pyruvate, nonessential amino acids, HEPES buffer and antibiotics (kanamycin, amphotericin), and heparin (all from GIBCO). Cultures were supplemented with 150 μg/ml “endothelial growth supplement” from Collaborative Biomedical Products. Upon reaching confluence, EC cultures were washed with 0.2% EDTA in phosphate buffered saline (PBS), trypsinized (Trypsin-EDTA, 0.1% final concentration), washed and re-treated with anti-Thy1.1 antibody for 40 min, washed and incubated with complement sufficient to lyse all Thy1.1+ cells (Behringwerke, AG, Marburg, Germany) at room temperature.
ECs were then plated on Matrigel®-coated 6.5 mm Transwells, […] (Corning Costar Corporation, Cambridge, Mass.). Presence of ECs and confluence of the monolayer were checked by measuring the electrical resistance (World Precision Instruments, New Haven, U.S.A., model EVOM-G) and by staining with FITC-labeled phalloidin (Sigma).
Myelin Basic Protein (MBP)-Specific T Cell Lines
To study the effect of agents of the present invention on T lymphocyte migration, MBP-specific T lymphocyte cell lines were generated according to the method of Ben-Nun et al., Europ. J. Immunol. 11:195-199 (1981); incorporated herein by reference) starting with lymphocytes from the LNs of Lewis rats that had been immunized with MBP in complete Freund's adjuvant (CFA). These cells were used for migration studies during the first 4 days of their propagation in IL-2-containing medium, following MBP restimulation in the presence of antigen-presenting cells (irradiated spleen or thymus cells from normal Lewis rats).
These stimulated T lymphocytes were radiolabeled with ^51Cr (Na^51Cr04, 37 MBq/ml, Amersham, UK) for 30 minutes at 37° C. with occasional agitation, they were then washed three times with DMEM and placed into the upper chamber of the Transwells at 5×10^5 cells in 100 μl of “migration medium.” Test and control substance were included in the upper wells at final concentrations of 0.1, 1 and 10 mM. Cell migration was assessed visually by light microscopy to gauge progress of the experiment. The experiment was terminated after 6 hours, whereupon the undersurface of the membrane filters were rinsed twice with 100 μl of ice-cold PBS-0.2% EDTA and combined with the medium of the lower chamber of the well. The combined material was counted for radioactivity in a gamma counter (Packard Auto-Gamma 5650 (Downer's Grove Ill., USA) gamma counter. Each “treatment” group was run in triplicate (test agent, control agent (glucose 6-phosphate) and no treatment).
Inhibition values are in comparison with the negative control.

[2] = tested on: 51Cr-labeled T lymphocyte migration into the spleen; assay: Inhibition of lymphocyte migration into lymphoid tissue (spleen) in vivo; design: species or system Balb/c mice; conditions: 5 mg per mouse iv with labeled cells; spleens removed 1.5 hours after injection; vs negative controls
Experimental: Lymphocytes were obtained from spleens of 6-8 week old female specific pathogen-free Balb/c mice (19-21 g). Single cell suspensions prepared by conventional means (pushing through a stainless steel screen). Red blood cells were lysed by treating with a solution of bicarbonate buffered ammonium chloride-EDTA (pH 7.3) and the preparation strained through a Falcon 2350 cell strainer. All cell preparative steps were performed on ice. Cell were suspended in a conventional lymphocyte culture medium (DMEM plus glucose, folic acid, L-asparagine, sodium bicarbonate, L-glutamine, sodium pyruvate, HEPES, 2-mercaptoethanol, penicillin, streptomycin, neomycin, and 2% FCS).
B lymphocytes were depleted by suspending the cells in purified rat anti-mouse CD45/B220 antibody (RA3-6B2 clone; PharMingen, USA) at a concentration of 4×10^7 cells/ml and incubated on ice for 20 minutes. An equal volume of culture medium (as above) was added and the cells centrifuged (200×g) and resuspended at a concentration of 10^7 cells/ml in BioMag goat ant-rat IgG (H&L) (“GARIG”) conjugated to magnetic beads (Bio Mag; Perseptive Diagnostics, Polysciences, Inc., USA). Following a 20 minute incubation on ice, with agitation every 5 minutes, cells binding to the GARIG/anti-CD45/B220 antibody complex were removed using magnetic separation (Dynal MPC-6, Dynal, USA). This procedure was repeated 4 times, resulting in a cell population containing approximately 80-90% T lymphocytes (determined by FACS analysis).
The cells were then washed in Hanks balanced salt solution (HBSS), resuspended in 5 ml of HBSS, and radiolabeled with ^51Cr for 30 minutes at 37° C. (as described above). The labeled cells were washed in PBS, centrifuged (200×g), and a portion were resuspended at a concentration of 3×10^7 cells/ml in either PBS (negative control) or PBS containing phenyl mannoside 6-phosphate (25 mg/ml in PBS; positive control) or PBS containing the test compound (25 mg/ml), and stored on ice. Cell viability was confirmed throughout the procedures by trypan blue exclusion. Balb/c mice were injected intravenously (iv) into the lateral tail vein with 0.2 ml containing 6×10^6 labeled lymphocytes and 0.2 ml of either PBS (negative control), 5 mg positive control or 5 mg test compound. All groups of mice were weight matched (±0.5 g).
Spleens from recipient mice were removed 1.5 hours after injection, and the cell-associated radioactivity was determined using a gamma counter (as above). Results of inhibition of lymphocyte migration into the spleen were expressed as a percentage reduction in the CPM of the spleens from treated animals compared with negative controls.
The phosphono-mannoside compounds of the present invention and their relative inhibition of lymphocyte migration in vivo (compared to negative controls) are presented in Table 2.

[3] = Tested for pharmaceutical effectiveness (test not specified)
Experimental: In a similar manner to the foregoing procedure and using the appropriate reagents, the following compounds were prepared.

[4] = 10 mM in upper well, compared with negative control

| Molecule | % inhibition (±SEM) of T cell migration [1, 4] [%] | % Inhibition of lymphocyte migration into spleens [2] [%] | pharmaceutical effectiveness as defined herein [3] | inhibition at 10000 µM ([1]; Rattus norvegicus, T-cell, 10 mM in upper well, compared with negative control, read-out: % inhibition (±SEM) of T cell migration) [%] | migration value compared with no treatment ([1]; control agent) |
| --- | --- | --- | --- | --- | --- |
| 1-(2,4,6-trimethylphenyl)-6-phosphono-manoside | 80 ± 4 | 85.5 | – | – | – |
| 1-(2-methyl,4-chlorophenyl)-6-phosphono-mannoside | 65 ± 4 | 45.0 | – | – | – |
| 1-(2-methyl,4-fluorophenyl)-6-phosphonomannoside | 53 ± 2 | 68.0 | – | – | – |
| 1-(2-methyl,4-trifluoromethyl)-6-phosphonomannoside | 88 ± 3 | 87.3 | pharmaceutically effective | – | – |
| O=C[C@H](O)[C@@H](O)[C@H](O)[C@H](O)COP(=O)(O)O [glucose-6-phosphate, reference compound] | – | – | – | 0 | not statistically different from no treatment |
| O=P(O)(O)OC[C@H]1OC(Oc2ccccc2)[C@@H](O)[C@@H](O)[C@@H]1O (stereo partly drawn) [positive control compound, phenyl mannoside 6-phosphate, reference compound] | – | 70.5 | – | – | – |
